Data published in PMC10905675, “INX-315, a Selective CDK2 Inhibitor, Induces Cell Cycle Arrest and Senescence in Solid Tumors” (Cancer Discovery, 2023).

Assays:
Conditions in all cases: INX-0315 at 100nM
[1] = molecular target: T1, ALK C1156Y (Homo sapiens, UniProt Q9UM73, C1156Y); test: SelectScreen LanthaScreen Binding
T1 construct: purchased Thermo Fisher Scientific SelectScreen (plus Nanosyn / Reaction Biology for CDK/cyclin lines)
Description: (§1) INX-315 was first evaluated in the SelectScreen Biochemical Kinase Profiling at Thermo Fisher Scientific (Madison, WI). The primary screen consisted of INX-315 dosed at a single concentration of 100 nmol/L in 1% DMSO across each platform within the SelectScreen array of assays, LanthaScreen Eu Kinase Binding Assay; AdaptaScreen; and Z'LyteScreen using preestablished conditions at Thermo Fisher Scientific as shown in Supplementary Table S2. […] The follow-up screen consisted of 10-point dose–response curves for INX-315 from 1 µmol/L to 0.0495 nmol/L.

[2] = molecular target: T2, AMPK (A1/B1/G2) (Homo sapiens, UniProt Q13131); test: SelectScreen LanthaScreen Binding
T2 construct: purchased Thermo Fisher Scientific SelectScreen (plus Nanosyn / Reaction Biology for CDK/cyclin lines)
Description: as §1

[3] = molecular target: T3, AMPK (A1/B1/G3) (Homo sapiens, UniProt Q13131); test: SelectScreen LanthaScreen Binding
T3 construct: purchased Thermo Fisher Scientific SelectScreen (plus Nanosyn / Reaction Biology for CDK/cyclin lines)
Description: as §1

[4] = molecular target: T4, AMPK (A1/B2/G1) (Homo sapiens, UniProt Q13131); test: SelectScreen LanthaScreen Binding
T4 construct: purchased Thermo Fisher Scientific SelectScreen (plus Nanosyn / Reaction Biology for CDK/cyclin lines)
Description: as §1

[5] = molecular target: T5, BMPR2 (Homo sapiens, UniProt Q13873); test: SelectScreen LanthaScreen Binding
T5 construct: purchased Thermo Fisher Scientific SelectScreen (plus Nanosyn / Reaction Biology for CDK/cyclin lines)
Description: as §1

[6] = molecular target: T6, BRAF V599E (Homo sapiens, UniProt P15056, V600E); test: SelectScreen LanthaScreen Binding
T6 construct: purchased Thermo Fisher Scientific SelectScreen (plus Nanosyn / Reaction Biology for CDK/cyclin lines)
Description: as §1

[7] = molecular target: T7, CDC7/DBF4 (Homo sapiens, UniProt O00311); test: SelectScreen LanthaScreen Binding
T7 construct: purchased Thermo Fisher Scientific SelectScreen (plus Nanosyn / Reaction Biology for CDK/cyclin lines)
Description: as §1

[8] = molecular target: T8, CDK14 (PFTK1)/cyclin Y (Homo sapiens, UniProt O94921); test: SelectScreen LanthaScreen Binding
T8 construct: purchased Thermo Fisher Scientific SelectScreen (plus Nanosyn / Reaction Biology for CDK/cyclin lines)
Description: as §1

[9] = molecular target: T9, CDK16 (PCTK1)/cyclin Y (Homo sapiens, UniProt Q00536); test: SelectScreen LanthaScreen Binding
T9 construct: purchased Thermo Fisher Scientific SelectScreen (plus Nanosyn / Reaction Biology for CDK/cyclin lines)
Description: as §1

[10] = molecular target: T10, CDK8/cyclin C (Homo sapiens, UniProt P49336); test: SelectScreen LanthaScreen Binding
T10 construct: purchased Thermo Fisher Scientific SelectScreen (plus Nanosyn / Reaction Biology for CDK/cyclin lines)
Description: as §1

[11] = molecular target: T11, DDR2 T654M (Homo sapiens, UniProt Q16832, T654M); test: SelectScreen LanthaScreen Binding
T11 construct: purchased Thermo Fisher Scientific SelectScreen (plus Nanosyn / Reaction Biology for CDK/cyclin lines)
Description: as §1

[12] = molecular target: T12, EGFR (ErbB1) d747-749 A750P (Homo sapiens, UniProt P00533, A750P/DEL747-749); test: SelectScreen LanthaScreen Binding
T12 construct: purchased Thermo Fisher Scientific SelectScreen (plus Nanosyn / Reaction Biology for CDK/cyclin lines)
Description: as §1

[13] = molecular target: T13, EIF2AK2 (PKR) (Homo sapiens, UniProt P19525); test: SelectScreen LanthaScreen Binding
T13 construct: purchased Thermo Fisher Scientific SelectScreen (plus Nanosyn / Reaction Biology for CDK/cyclin lines)
Description: as §1

[14] = molecular target: T14, FGFR1 V561M (Homo sapiens, UniProt P11362, V561M); test: SelectScreen LanthaScreen Binding
T14 construct: purchased Thermo Fisher Scientific SelectScreen (plus Nanosyn / Reaction Biology for CDK/cyclin lines)
Description: as §1

[15] = molecular target: T15, FGFR3 G697C (Homo sapiens, UniProt P22607, G697C); test: SelectScreen LanthaScreen Binding
T15 construct: purchased Thermo Fisher Scientific SelectScreen (plus Nanosyn / Reaction Biology for CDK/cyclin lines)
Description: as §1

[16] = molecular target: T16, GRK1 (Homo sapiens, UniProt Q15835); test: SelectScreen LanthaScreen Binding
T16 construct: purchased Thermo Fisher Scientific SelectScreen (plus Nanosyn / Reaction Biology for CDK/cyclin lines)
Description: as §1

[17] = molecular target: T17, KIT D820E (Homo sapiens, UniProt P10721, D820E); test: SelectScreen LanthaScreen Binding
T17 construct: purchased Thermo Fisher Scientific SelectScreen (plus Nanosyn / Reaction Biology for CDK/cyclin lines)
Description: as §1

[18] = molecular target: T18, KIT N822K (Homo sapiens, UniProt P10721, N822K); test: SelectScreen LanthaScreen Binding
T18 construct: purchased Thermo Fisher Scientific SelectScreen (plus Nanosyn / Reaction Biology for CDK/cyclin lines)
Description: as §1

[19] = molecular target: T19, KIT V654A (Homo sapiens, UniProt P10721, V654A); test: SelectScreen LanthaScreen Binding
T19 construct: purchased Thermo Fisher Scientific SelectScreen (plus Nanosyn / Reaction Biology for CDK/cyclin lines)
Description: as §1

[20] = molecular target: T20, LIMK1 (Homo sapiens, UniProt P53667); test: SelectScreen LanthaScreen Binding
T20 construct: purchased Thermo Fisher Scientific SelectScreen (plus Nanosyn / Reaction Biology for CDK/cyclin lines)
Description: as §1

[21] = molecular target: T21, LIMK2 (Homo sapiens, UniProt P53671); test: SelectScreen LanthaScreen Binding
T21 construct: purchased Thermo Fisher Scientific SelectScreen (plus Nanosyn / Reaction Biology for CDK/cyclin lines)
Description: as §1

[22] = molecular target: T22, MAP2K4 (MEK4) (Homo sapiens, UniProt P45985); test: SelectScreen LanthaScreen Binding
T22 construct: purchased Thermo Fisher Scientific SelectScreen (plus Nanosyn / Reaction Biology for CDK/cyclin lines)
Description: as §1

[23] = molecular target: T23, MAPK10 (JNK3) (Homo sapiens, UniProt P53779); test: SelectScreen LanthaScreen Binding
T23 construct: purchased Thermo Fisher Scientific SelectScreen (plus Nanosyn / Reaction Biology for CDK/cyclin lines)
Description: as §1

[24] = molecular target: T24, MERTK (cMER) A708S (Homo sapiens, UniProt Q12866, A708S); test: SelectScreen LanthaScreen Binding
T24 construct: purchased Thermo Fisher Scientific SelectScreen (plus Nanosyn / Reaction Biology for CDK/cyclin lines)
Description: as §1

[25] = molecular target: T25, NEK8 (Homo sapiens, UniProt Q86SG6); test: SelectScreen LanthaScreen Binding
T25 construct: purchased Thermo Fisher Scientific SelectScreen (plus Nanosyn / Reaction Biology for CDK/cyclin lines)
Description: as §1

[26] = molecular target: T26, NUAK2 (Homo sapiens, UniProt Q9H093); test: SelectScreen LanthaScreen Binding
T26 construct: purchased Thermo Fisher Scientific SelectScreen (plus Nanosyn / Reaction Biology for CDK/cyclin lines)
Description: as §1

[27] = molecular target: T27, RET M918T (Homo sapiens, UniProt P07949, M918T); test: SelectScreen LanthaScreen Binding
T27 construct: purchased Thermo Fisher Scientific SelectScreen (plus Nanosyn / Reaction Biology for CDK/cyclin lines)
Description: as §1

[28] = molecular target: T28, STK16 (PKL12) (Homo sapiens, UniProt O75716); test: SelectScreen LanthaScreen Binding
T28 construct: purchased Thermo Fisher Scientific SelectScreen (plus Nanosyn / Reaction Biology for CDK/cyclin lines)
Description: as §1

[29] = molecular target: T29, STK17B (DRAK2) (Homo sapiens, UniProt O94768); test: SelectScreen LanthaScreen Binding
T29 construct: purchased Thermo Fisher Scientific SelectScreen (plus Nanosyn / Reaction Biology for CDK/cyclin lines)
Description: as §1

[30] = molecular target: T30, STK33 (Homo sapiens, UniProt Q9BYT3); test: SelectScreen LanthaScreen Binding
T30 construct: purchased Thermo Fisher Scientific SelectScreen (plus Nanosyn / Reaction Biology for CDK/cyclin lines)
Description: as §1

[31] = molecular target: T31, TAOK1 (Homo sapiens, UniProt Q7L7X3); test: SelectScreen LanthaScreen Binding
T31 construct: purchased Thermo Fisher Scientific SelectScreen (plus Nanosyn / Reaction Biology for CDK/cyclin lines)
Description: as §1

[32] = molecular target: T32, TLK1 (Homo sapiens, UniProt Q9UKI8); test: SelectScreen LanthaScreen Binding
T32 construct: purchased Thermo Fisher Scientific SelectScreen (plus Nanosyn / Reaction Biology for CDK/cyclin lines)
Description: as §1

[33] = molecular target: T33, TNIK (Homo sapiens, UniProt Q9UKE5); test: SelectScreen LanthaScreen Binding
T33 construct: purchased Thermo Fisher Scientific SelectScreen (plus Nanosyn / Reaction Biology for CDK/cyclin lines)
Description: as §1

[34] = molecular target: T34, LRRK2 (Homo sapiens, UniProt Q5S007); test: SelectScreen Adapta; type: biochemical
T34 construct: purchased Thermo Fisher Scientific SelectScreen (plus Nanosyn / Reaction Biology for CDK/cyclin lines)
Description: as §1

[35] = molecular target: T35, PI4KA (PI4K alpha) (Homo sapiens, UniProt P42356); test: SelectScreen Adapta; type: biochemical
T35 construct: purchased Thermo Fisher Scientific SelectScreen (plus Nanosyn / Reaction Biology for CDK/cyclin lines)
Description: as §1

[36] = molecular target: T36, PIK3C2B (PI3K-C2 beta) (Homo sapiens, UniProt O00750); test: SelectScreen Adapta; type: biochemical
T36 construct: purchased Thermo Fisher Scientific SelectScreen (plus Nanosyn / Reaction Biology for CDK/cyclin lines)
Description: as §1

[37] = molecular target: T37, PIK3CD/PIK3R1 (p110 delta/p85 alpha) (Homo sapiens, UniProt O00329); test: SelectScreen Adapta; type: biochemical
T37 construct: purchased Thermo Fisher Scientific SelectScreen (plus Nanosyn / Reaction Biology for CDK/cyclin lines)
Description: as §1

T34 sequence (Q5S007 whole entry): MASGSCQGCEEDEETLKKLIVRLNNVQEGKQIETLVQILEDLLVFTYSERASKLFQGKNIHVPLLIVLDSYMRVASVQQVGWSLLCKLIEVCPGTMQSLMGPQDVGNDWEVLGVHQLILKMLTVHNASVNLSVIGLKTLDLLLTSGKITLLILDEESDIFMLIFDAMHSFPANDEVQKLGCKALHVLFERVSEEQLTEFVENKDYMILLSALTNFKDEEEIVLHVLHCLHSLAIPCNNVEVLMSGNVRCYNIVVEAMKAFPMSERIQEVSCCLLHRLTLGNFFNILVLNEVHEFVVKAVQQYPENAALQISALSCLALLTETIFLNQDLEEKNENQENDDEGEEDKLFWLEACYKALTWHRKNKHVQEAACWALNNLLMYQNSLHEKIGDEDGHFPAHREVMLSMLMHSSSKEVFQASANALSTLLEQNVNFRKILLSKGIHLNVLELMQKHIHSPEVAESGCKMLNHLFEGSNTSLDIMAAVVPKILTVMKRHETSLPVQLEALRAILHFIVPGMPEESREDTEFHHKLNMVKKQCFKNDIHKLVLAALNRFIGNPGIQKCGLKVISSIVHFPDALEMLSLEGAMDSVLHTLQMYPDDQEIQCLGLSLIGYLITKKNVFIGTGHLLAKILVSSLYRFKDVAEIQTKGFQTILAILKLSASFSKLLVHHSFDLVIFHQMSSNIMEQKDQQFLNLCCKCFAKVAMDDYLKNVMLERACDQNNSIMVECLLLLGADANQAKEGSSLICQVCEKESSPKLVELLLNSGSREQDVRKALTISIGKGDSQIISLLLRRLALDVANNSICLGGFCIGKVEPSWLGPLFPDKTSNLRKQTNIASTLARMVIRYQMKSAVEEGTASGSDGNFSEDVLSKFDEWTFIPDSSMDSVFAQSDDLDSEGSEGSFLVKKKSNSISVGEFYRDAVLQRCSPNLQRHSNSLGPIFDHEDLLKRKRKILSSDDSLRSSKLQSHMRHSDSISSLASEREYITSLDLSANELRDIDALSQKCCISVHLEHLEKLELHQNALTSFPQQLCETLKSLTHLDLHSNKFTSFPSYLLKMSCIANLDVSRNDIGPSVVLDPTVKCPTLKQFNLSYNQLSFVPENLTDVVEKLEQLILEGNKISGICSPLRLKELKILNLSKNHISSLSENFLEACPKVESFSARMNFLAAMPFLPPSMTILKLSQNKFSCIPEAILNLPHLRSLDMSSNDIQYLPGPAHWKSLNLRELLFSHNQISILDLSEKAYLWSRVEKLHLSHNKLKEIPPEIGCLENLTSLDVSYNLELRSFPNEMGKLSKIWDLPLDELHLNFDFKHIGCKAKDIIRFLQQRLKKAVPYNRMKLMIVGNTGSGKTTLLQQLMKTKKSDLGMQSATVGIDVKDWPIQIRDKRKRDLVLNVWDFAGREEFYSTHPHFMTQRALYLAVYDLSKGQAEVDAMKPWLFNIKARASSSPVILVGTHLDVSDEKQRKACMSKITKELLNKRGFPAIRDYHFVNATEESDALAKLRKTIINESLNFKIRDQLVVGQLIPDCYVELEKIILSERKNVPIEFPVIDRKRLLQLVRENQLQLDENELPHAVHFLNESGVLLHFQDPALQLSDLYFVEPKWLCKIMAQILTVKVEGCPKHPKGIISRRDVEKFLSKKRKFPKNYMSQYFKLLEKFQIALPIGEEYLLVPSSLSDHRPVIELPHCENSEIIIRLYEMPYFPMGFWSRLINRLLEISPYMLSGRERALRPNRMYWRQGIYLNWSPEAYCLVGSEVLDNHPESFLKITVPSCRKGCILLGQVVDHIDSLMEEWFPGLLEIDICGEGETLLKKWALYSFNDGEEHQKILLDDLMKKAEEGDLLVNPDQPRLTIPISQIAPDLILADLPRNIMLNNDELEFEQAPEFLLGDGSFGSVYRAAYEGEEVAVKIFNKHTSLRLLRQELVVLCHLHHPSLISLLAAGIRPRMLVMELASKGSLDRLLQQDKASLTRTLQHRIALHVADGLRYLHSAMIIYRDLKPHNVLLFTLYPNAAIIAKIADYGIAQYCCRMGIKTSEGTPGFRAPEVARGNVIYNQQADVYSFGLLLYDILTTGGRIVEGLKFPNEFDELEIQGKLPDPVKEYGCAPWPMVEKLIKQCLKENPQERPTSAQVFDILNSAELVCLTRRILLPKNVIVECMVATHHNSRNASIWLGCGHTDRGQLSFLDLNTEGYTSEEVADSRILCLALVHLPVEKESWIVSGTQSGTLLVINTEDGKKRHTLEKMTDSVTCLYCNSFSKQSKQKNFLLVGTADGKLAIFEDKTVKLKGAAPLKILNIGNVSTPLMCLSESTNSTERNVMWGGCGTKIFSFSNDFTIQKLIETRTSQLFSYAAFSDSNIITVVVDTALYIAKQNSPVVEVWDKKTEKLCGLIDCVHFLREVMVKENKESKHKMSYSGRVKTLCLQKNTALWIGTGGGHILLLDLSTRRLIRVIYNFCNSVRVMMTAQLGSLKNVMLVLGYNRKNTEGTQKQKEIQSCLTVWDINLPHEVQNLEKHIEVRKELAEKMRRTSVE
T18 sequence (P10721 26-976 N822K): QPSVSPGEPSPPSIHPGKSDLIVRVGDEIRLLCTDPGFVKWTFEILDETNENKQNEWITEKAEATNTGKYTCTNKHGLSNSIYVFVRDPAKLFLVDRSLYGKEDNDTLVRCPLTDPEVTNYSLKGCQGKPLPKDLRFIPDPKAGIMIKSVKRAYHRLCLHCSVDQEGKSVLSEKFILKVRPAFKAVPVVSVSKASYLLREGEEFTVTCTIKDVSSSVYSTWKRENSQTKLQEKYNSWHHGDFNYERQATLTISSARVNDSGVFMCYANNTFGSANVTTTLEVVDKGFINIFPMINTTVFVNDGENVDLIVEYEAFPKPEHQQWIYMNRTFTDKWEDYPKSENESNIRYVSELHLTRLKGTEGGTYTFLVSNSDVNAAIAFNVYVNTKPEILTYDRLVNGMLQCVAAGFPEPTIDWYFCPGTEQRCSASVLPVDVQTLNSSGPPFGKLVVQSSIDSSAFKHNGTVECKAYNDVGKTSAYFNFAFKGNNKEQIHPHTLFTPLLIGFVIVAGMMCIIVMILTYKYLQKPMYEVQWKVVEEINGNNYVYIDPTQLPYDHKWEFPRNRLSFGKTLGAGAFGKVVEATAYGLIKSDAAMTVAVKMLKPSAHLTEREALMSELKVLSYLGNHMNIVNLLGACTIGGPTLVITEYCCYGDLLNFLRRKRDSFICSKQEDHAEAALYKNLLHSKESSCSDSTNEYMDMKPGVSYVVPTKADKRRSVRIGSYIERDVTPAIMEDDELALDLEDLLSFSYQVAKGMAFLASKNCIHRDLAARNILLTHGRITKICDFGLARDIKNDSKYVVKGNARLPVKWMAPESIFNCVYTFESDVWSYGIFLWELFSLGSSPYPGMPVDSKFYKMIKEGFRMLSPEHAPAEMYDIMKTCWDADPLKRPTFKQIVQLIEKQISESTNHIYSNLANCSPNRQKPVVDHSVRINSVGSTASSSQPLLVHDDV
T24 sequence (Q12866 21-999 A708S): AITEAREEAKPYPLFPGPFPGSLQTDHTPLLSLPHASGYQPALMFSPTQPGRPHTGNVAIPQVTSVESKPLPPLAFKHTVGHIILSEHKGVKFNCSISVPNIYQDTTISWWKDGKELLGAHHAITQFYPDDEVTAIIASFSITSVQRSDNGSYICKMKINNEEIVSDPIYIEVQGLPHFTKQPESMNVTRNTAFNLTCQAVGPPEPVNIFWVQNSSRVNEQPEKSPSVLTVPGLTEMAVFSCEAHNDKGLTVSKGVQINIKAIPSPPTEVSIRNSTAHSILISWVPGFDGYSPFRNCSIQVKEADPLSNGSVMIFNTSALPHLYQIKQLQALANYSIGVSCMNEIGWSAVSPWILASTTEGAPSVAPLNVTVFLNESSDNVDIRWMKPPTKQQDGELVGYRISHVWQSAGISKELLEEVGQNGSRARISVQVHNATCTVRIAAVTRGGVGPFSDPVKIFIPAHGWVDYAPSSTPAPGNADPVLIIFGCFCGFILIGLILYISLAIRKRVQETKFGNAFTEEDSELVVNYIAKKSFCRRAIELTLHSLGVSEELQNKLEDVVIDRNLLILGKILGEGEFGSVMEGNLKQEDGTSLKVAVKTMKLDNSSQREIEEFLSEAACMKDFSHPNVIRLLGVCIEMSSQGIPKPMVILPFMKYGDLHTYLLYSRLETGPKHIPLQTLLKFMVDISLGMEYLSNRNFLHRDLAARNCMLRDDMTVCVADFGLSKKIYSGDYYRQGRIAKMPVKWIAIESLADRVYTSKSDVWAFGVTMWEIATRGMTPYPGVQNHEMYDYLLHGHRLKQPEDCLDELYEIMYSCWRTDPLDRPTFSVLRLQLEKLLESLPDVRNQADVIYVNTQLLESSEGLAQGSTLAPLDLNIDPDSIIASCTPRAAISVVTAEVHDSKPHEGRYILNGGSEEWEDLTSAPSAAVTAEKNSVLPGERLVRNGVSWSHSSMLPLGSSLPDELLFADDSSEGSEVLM
T29 sequence (O94768 whole entry): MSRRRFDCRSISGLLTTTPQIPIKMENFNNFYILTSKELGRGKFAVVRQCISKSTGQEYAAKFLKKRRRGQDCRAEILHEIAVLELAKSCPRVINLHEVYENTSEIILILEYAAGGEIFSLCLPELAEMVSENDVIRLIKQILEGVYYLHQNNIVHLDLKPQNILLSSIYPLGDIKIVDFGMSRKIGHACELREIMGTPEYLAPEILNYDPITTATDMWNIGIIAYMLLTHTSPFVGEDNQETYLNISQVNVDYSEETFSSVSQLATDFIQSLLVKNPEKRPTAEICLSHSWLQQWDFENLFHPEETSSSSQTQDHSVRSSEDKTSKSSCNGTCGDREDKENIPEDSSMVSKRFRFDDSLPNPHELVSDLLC
T19 sequence (P10721 26-976 V654A): as the sequence (P10721 26-976 N822K) above, with V629A, K797N counted along it
T17 sequence (P10721 26-976 D820E): as the sequence (P10721 26-976 N822K) above, with D795E, K797N counted along it

In the case of NS(=O)(=O)c1ccc(Nc2ncc3cc4n(c3n2)C2(CCCCC2)C(=O)NN4)cc1 [INX-315], the inhibition at 0.1 µM [1] is reported as 9%, the inhibition at 0.1 µM [2] is reported as 15% and the inhibition at 0.1 µM [3] is reported as 19%. It also gave an inhibition at 0.1 µM [4] of 36%, an inhibition at 0.1 µM [5] of 17% and an inhibition at 0.1 µM [6] of -2%. For the same compound, the inhibition at 0.1 µM [7] was -1%, the inhibition at 0.1 µM [8] was 24% and the inhibition at 0.1 µM [9] was 64%. It also gave an inhibition at 0.1 µM [10] of 0%, an inhibition at 0.1 µM [11] of 26% and an inhibition at 0.1 µM [12] of 12%. For the same compound, the inhibition at 0.1 µM [13] was -8%, the inhibition at 0.1 µM [14] was 12% and the inhibition at 0.1 µM [15] was 13%. It also gave an inhibition at 0.1 µM [16] of 27%, an inhibition at 0.1 µM [17] of 12% and an inhibition at 0.1 µM [18] of 17%. For the same compound, the inhibition at 0.1 µM [19] was 26%, the inhibition at 0.1 µM [20] was 34% and the inhibition at 0.1 µM [21] was 22%. For the same compound, the inhibition at 0.1 µM [22] was 17%, the inhibition at 0.1 µM [23] was 12% and the inhibition at 0.1 µM [24] was 14%. The inhibition at 0.1 µM [25] was 0%, the inhibition at 0.1 µM [26] was 35% and the inhibition at 0.1 µM [27] was 42%. It also gave an inhibition at 0.1 µM [28] of 57%, an inhibition at 0.1 µM [29] of 4% and an inhibition at 0.1 µM [30] of 5%. The inhibition at 0.1 µM [31] was 22%, the inhibition at 0.1 µM [32] was 0% and the inhibition at 0.1 µM [33] was 12%. It also gave an inhibition at 0.1 µM [34] of 29%, an inhibition at 0.1 µM [35] of -11% and an inhibition at 0.1 µM [36] of -14%. The inhibition at 0.1 µM [37] was -10%.
